Measured values as given in ChEMBL document CHEMBL1159040, “Synthesis and evaluation of phenylequine for antimalarial activity in vitro and in vivo” (Bioorg Med Chem Lett, 2010).
pIC50: −log10 of the molar value.

Columns and labels:
Plasmodium falciparum [1] = assay: Antiplasmodial activity against chloroquine-resistant Plasmodium falciparum K1 infected in human O+ erythrocytes by parasite LDH assay; assay type: functional, organism-based
KB = assay: Cytotoxicity against human KB cells; assay type: cell-based
Plasmodium berghei [2] = assay: Antiplasmodial activity in chloroquine-sensitive Plasmodium berghei ANKA infected BALB/c mice (Mus musculus) assessed as inhibition of parasitemia at 30 mg/kg, intraperitoneally daily once for 4 days; assay type: functional; conditions: route intraperitoneal
Plasmodium berghei [3] = assay: Antiplasmodial activity in chloroquine-sensitive Plasmodium berghei ANKA infected BALB/c mice (Mus musculus) assessed as mean parasitemia at 30 mg/kg, intraperitoneally daily once for 4 days; assay type: functional; conditions: route intraperitoneal
Plasmodium falciparum [4] = assay: Antiplasmodial activity against chloroquine-sensitive Plasmodium falciparum D10 infected in human O+ RBC by parasite LDH assay; assay type: functional, organism-based
Plasmodium yoelii [5] = assay: Antiplasmodial activity in chloroquine-nonsensitive Plasmodium yoelii infected BALB/c mice (Mus musculus) assessed as inhibition of parasitaemia at 10 mg/kg, intraperitoneally daily once for 4 days; assay type: functional; conditions: ip, 96 h, route intraperitoneal
Plasmodium yoelii [6] = assay: Antiplasmodial activity in chloroquine-nonsensitive Plasmodium yoelii infected BALB/c mice (Mus musculus) assessed as inhibition of parasitaemia at 3 mg/kg, intraperitoneally daily once for 4 days; assay type: functional; conditions: route intraperitoneal
Plasmodium berghei [7] = assay: Antiplasmodial activity in chloroquine-sensitive Plasmodium berghei ANKA infected BALB/c mice (Mus musculus) assessed as inhibition of parasitemia at 10 mg/kg, intraperitoneally daily once for 4 days; assay type: functional; conditions: ip, 96 h, route intraperitoneal
Plasmodium yoelii [8] = assay: Antiplasmodial activity in chloroquine-nonsensitive Plasmodium yoelii infected BALB/c mice (Mus musculus) assessed as inhibition of parasitaemia at 1 mg/kg, intraperitoneally daily once for 4 days; assay type: functional; conditions: ip, 96 h, route intraperitoneal
Plasmodium berghei [9] = assay: Antiplasmodial activity in chloroquine-sensitive Plasmodium berghei ANKA infected BALB/c mice (Mus musculus) assessed as mean parasitemia at 10 mg/kg, intraperitoneally daily once for 4 days; assay type: functional; conditions: route intraperitoneal
Plasmodium yoelii [10] = assay: Antiplasmodial activity in chloroquine-nonsensitive Plasmodium yoelii infected BALB/c mice (Mus musculus) assessed as inhibition of parasitaemia at 30 mg/kg, intraperitoneally daily once for 4 days; assay type: functional; conditions: route intraperitoneal

Row | SMILES | pIC50 (Plasmodium falciparum [1]) | Activity (KB) [µM] | Activity (Plasmodium berghei [3]) [%] | pIC50 (Plasmodium falciparum [4]) | inhibition in vivo at 10 mg/kg (Plasmodium yoelii [5]) [%] | inhibition (INH) (Plasmodium yoelii [6]) [%] | further results
1 | CN(C)Cc1ccccc1CNc1ccnc2cc(Cl)ccc12 [PHENYLEQUINE] | 8.16 | 70 | 0 | 7.88 |  |  | inhibition (INH) (Plasmodium berghei [2]): 100%
2 | CN(C)Cc1ccccc1CNCCNc1ccnc2cc(Cl)ccc12 | 8.01 | 14 |  | 7.71 |  |  | 
3 | CCN(CC)CCCC(C)Nc1ccnc2cc(Cl)ccc12.O=P(O)(O)O.O=P(O)(O)O (stereo not drawn) [CHLOROQUINE PHOSPHATE] |  |  |  |  | 98.1 |  | inhibition in vivo at 3 mg/kg (Plasmodium yoelii [6]; Plasmodium yoelii, ip, 96 h): 32.7%; inhibition in vivo at 10 mg/kg (Plasmodium berghei [7]): 100%; inhibition in vivo at 1 mg/kg (Plasmodium yoelii [8]): 32.7%; Activity (Plasmodium berghei [9]): 0%
4 | CN(C)Cc1ccccc1CNc1ccnc2ccccc12 | 7.15 | 8.5 |  | 6.97 |  |  | 
5 | CN(C)Cc1ccccc1CNc1ccnc2cc(Cl)ccc12.O=C(O)CC(O)(CC(=O)O)C(=O)O [PHENYLEQUINE DICITRATE] |  |  |  |  |  | 8.9 | inhibition (INH) (Plasmodium yoelii [10]): 99.6%
6 | CN(C)Cc1ccccc1CNc1ccnc2cc(Cl)ccc12.Cl.Cl [PHENYLEQUINE DIHYDROCHLORIDE] |  |  | 0 |  | 99.7 | 94.5 | inhibition in vivo at 30 mg/kg (Plasmodium yoelii [10]; Plasmodium yoelii, ip, 96 h): 99.5%; inhibition in vivo at 30 mg/kg (Plasmodium berghei [2]; Plasmodium berghei, ANKA, ip, 96 h): 100%
